Data published in patent US6495147B1 (LVMH Recherche, priority 1997, dated 2002).

Columns and labels:
[1] = tested on: normal human keratinocytes; test: Stimulation of synthesis and secretion of PG and GAG by keratinocytes (radioactive tracer incorporation); format: cell-based; details: for GAG secreted / A, stimulating activity on the secretion of GAG: 48 h; for A, stimulating activity on the secretion of GAG: versus untreated control
Procedure: These tracers enable the amount of PG and GAG to be measured.
There are two families of GAG which differ in their sugar chains. One is based on a sequence of glucosamines and the other is based on a sequence of galactosamines. It is for this reason that two different radioactive tracers were used, namely ^3H-D-glucosamine and ^14C-D-galactosamine, which become incorporated in the osidic chains of PG and GAG during their synthesis.
The cells are incubated for 24 h at 37° C. in a humidity-saturated atmosphere containing 5% of CO2.
(§1) The cultures are then incubated for 48 h at 37° C. in a humidity-saturated atmosphere containing 5% of CO2.
The enzyme is then inactivated by heating for 10 min in boiling water, after which the mixture is brought back to room temperature. A selective precipitation of the GAG is effected with 40 μl of cetylpyridinium chloride (CPC at 100 mg/ml, Sigma) in the presence of 40 μl of a mixture of hyaluronic acid (Fluka), dermatan sulfate (Fluka) and chondroitin sulfate (Sigma), all at 2 mg/ml (amounting to the addition of a solution containing 6 mg/ml of non-radioactive GAG). These non-radioactive GAG are added to trigger the precipitation and entrain the radioactive GAG (which on their own would not be in a sufficient amount to precipitate) into the precipitate. The precipitate obtained is washed twice with 400 μl of a solution of CPC at 10 mg/ml, and then solubilized in 500 μl of methanol (Merck). The radioactivity is finally measured by liquid scintillation with 10 ml of scintillating liquid (Packard).
It should be noted when processing the results that the GAG whose synthesis has been measured have two origins. They originate both from the synthesized and secreted GAG and from the synthesized and secreted PG (which have undergone hydrolysis with pronase for the purposes of the assay).
In order to reduce the radioactivity to a unit amount of cellular material, the cellular proteins are assayed. After removal of the culture medium and two rinses with a phosphate buffer of pH 7.2 (PBS, Gibco), the cellular tapetum in the culture wells is dissolved in 30 μl of 0.1 M NaOH at 37° C. and the plates are agitated for 30 min at 37° C. 200 μl of bicinchoninic acid/Cu^++ sulfate reagent (Sigma kit) are added to each well. The plates are incubated for 30 min at 37° C. in the dark and the proteins which it is desired to assay reduce the cupric ions (Cu^++) of the copper sulfate to cuprous ions (Cu^+). The latter and the bicinchoninic acid form chromogenic complexes absorbing at 570 nm, which is the wavelength used to measure the optical density. In parallel, a calibration series is prepared under the same experimental conditions with 0 to 100 μg/well of bovine serum albumin (BSA, Sigma) in order to translate the optical densities (OD) obtained with the cellular proteins into Stg of BSA equivalent per well.
The amounts of GAG measured will be reduced to a unit amount of protein (expressed in jig of BSA equivalent).
The stimulating activity “A” on the secretion of GAG is calculated in the form of a percentage according to the following formula: [formula]

[2] = tested on: normal human keratinocytes; test: Cytotoxicity / cell viability in keratinocyte cultures; format: cell-based; details: concentrations of 1.5 and 10 mM
Procedure: as §1

[3] = D-xylose 1 mM, tracer 3H-D-glucosamine
[4] = D-xylose 1 mM, tracer 14C-D-galactosamine
[5] = D-xylose 5 mM, tracer 3H-D-glucosamine
[6] = D-xylose 10 mM, tracer 3H-D-glucosamine
[7] = D-xylose 10 mM, tracer 14C-D-galactosamine

O=C[C@H](O)[C@@H](O)[C@H](O)CO [D-xylose]
GAG secreted [1, 3]: 2148 ± 160 dpm/μg protein
A, stimulating activity on the secretion of GAG [1, 3]: 55%
GAG secreted [1, 4]: 136 ± 12 dpm/μg protein
A, stimulating activity on the secretion of GAG [1, 4]: 34%
GAG secreted [1, 5]: 2661 ± 202 dpm/μg protein
A, stimulating activity on the secretion of GAG [1, 5]: 92%
A, stimulating activity on the secretion of GAG ([1]; D-xylose 5 mM, tracer 14C-D-galactosamine): 105%
GAG secreted [1, 6]: 2950 ± 262 dpm/μg protein
A, stimulating activity on the secretion of GAG [1, 6]: 113%
GAG secreted [1, 7]: 250 ± 28 dpm/μg protein
A, stimulating activity on the secretion of GAG [1, 7]: 145%
synthesis and extracellular secretion of PG and GAG by the keratinocytes of the human epidermis ([1]; irrespective of the radioactive tracer used): very strongly stimulates
cytotoxicity [2]: non-cytotoxic
